The text below walks through data of patent publication US20100159449A1, “Continuous Assay Method for Measuring Receptor- and Ion Channel-Mediated Calcium Response and Subsequent Gene Expression” (NOACELL SCIENCE CO., LTD., priority 2006, published 2010).

Each structure is given as a SMILES string. Where a name gives a salt, the structure may show the parent alone.

The subject of assay [1] is purine receptors. The assay is described as follows: aequorin-mediated calcium response (flash luminescence) in transfected CHO cells. The following applies: ATP 10^-3 to 10^-9 M, 30 seconds after addition, EnduRen or wildtype coelenterazine as substrate (FIG. 9). Type of assay: cell-based. As for the experimental part:
(§1) To begin with, plasmids (pcDNA MtAEQ, pcDNA Gα16, and pGL3 CRE-Renilla) were introduced into CHO cells. […] The results are graphed in FIGS. 3 and 4.
(§2) In detail, a CHO cell line (ATCC-deposited cells) that expresses purine receptors was seeded into 10 cm^2 Petri dishes at a 1.5×10^5 cells/ml cellular concentration.
(§3) The next day, 2.2 μg Gα16 (pcDNA Gα16), 3 μg aequorin-expressing plasmids (pcDNA MtAequorin), and 3 μg cAMP-responding Renilla luciferase plasmids (pGL3 CRE-Renilla) were transfected into each Petri dish employing 18 μL of FuGENE® 6 (by Roche Diagnostics).
(§4) The following day, 400 μL of trypsin/EDTA solution was added to the Petri dishes, and the cells were dissociated and suspended in 13 mL of DMEM/F12 FCS nutrient broth. […] Thereafter culturing was continued, and the results six hours later of measuring the activity of Renilla luciferase with the ARVO were diagrammed (FIG. 4). […] It will be understood that, with no induction of cAMP-mediated Renilla luciferase occurring, the purine receptors were Gq-coupled GPCRs.
Wildtype coelenterazine and, as a stable substrate, EnduRen™ were employed as luminescent substrates for enzymes, and the continuous-measurement regimes were compared. Plasmids were introduced into CHO cells. […]

Assay [2] relates to purine receptors. The assay is described as follows: cAMP-responding (CRE) Renilla luciferase reporter assay in CHO cells expressing purine receptors. In kind it is cell-based. The following applies: ATP 10^-3 to 10^-9 M, six hours later, EnduRen substrate (FIG. 4). As for the experimental part:
as §1, §2, §3, §4
(In general: A reporter such as luciferase makes a cellular process visible.)

Assay [3] addresses dopamine receptors (D2RS) (Homo sapiens, UniProt P14416). The following applies: D2RS-expressing CHO cells; dopamine 10^-3 to 10^-9 M; following day forskolin added, six hours culturing (FIG. 8).
Procedure: To begin with, plasmids were introduced into dopamine-receptor (D2RS) expressing cells. Following an overnight culturing, EnduRen™ was added as a substrate, the combination was cultivated four hours, and from 10^−3 to 10^−9 M sample (dopamine) was added.
In detail, dopamine receptors (D2RS) were transfected into a CHO cell line (ATCC-deposited cells), and, in the same manner as in Embodiment 1, Gα16, aequorin-expressing plasmids, and cAMP-responding Renilla luciferase plasmids were transfected into the stably expressing cell line and the cell suspension solution was adjusted.
The following day, 10 μL of 10^−5 M forskolin was added, and culturing was continued for six hours. The results of measuring the activity of Renilla luciferase were diagrammed (FIG. 8). In FIG. 8, the vertical axis indicates the per-second luminescent intensity (count per second), and the horizontal axis, the dopamine concentration.
In assay [4] the target is serotonin receptor (5HT2A) (Homo sapiens, UniProt P28223). The assay is described as follows: cAMP-responding (CRE) Renilla luciferase reporter assay in serotonin-receptor expressing CHO cells. In kind it is cell-based. As to conditions: 5HT2A-expressing CHO cells; serotonin 2.5x10^-6 to 2.5x10^-12 M; culturing six hours; EnduRen substrate (FIG. 6).
serotonin receptor (5HT2A), sequence (P28223 whole entry, species assumed): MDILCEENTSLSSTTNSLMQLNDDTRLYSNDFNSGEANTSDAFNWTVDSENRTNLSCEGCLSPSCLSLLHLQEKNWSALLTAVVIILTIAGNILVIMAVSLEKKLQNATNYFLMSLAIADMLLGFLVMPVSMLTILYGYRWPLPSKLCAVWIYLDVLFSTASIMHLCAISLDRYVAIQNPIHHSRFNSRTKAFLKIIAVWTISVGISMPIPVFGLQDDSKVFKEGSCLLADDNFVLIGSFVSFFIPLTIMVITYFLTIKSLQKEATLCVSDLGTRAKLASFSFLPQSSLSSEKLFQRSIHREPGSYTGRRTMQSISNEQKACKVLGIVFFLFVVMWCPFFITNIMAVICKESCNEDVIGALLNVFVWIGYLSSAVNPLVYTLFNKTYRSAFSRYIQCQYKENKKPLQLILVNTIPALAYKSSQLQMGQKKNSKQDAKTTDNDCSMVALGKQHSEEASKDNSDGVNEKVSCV
Procedure: To begin with, plasmids (pcDNA MtAEQ, pcDNA Gα16, and pGL3 CRE-Renilla) were introduced into serotonin-receptor (5HT2A) expressing cells. Following an overnight culturing, EnduRen™ was added as a substrate, the combination was cultivated four hours, and from 2.5×10^−6 to 2.5×10^−12 M sample (serotonin) was added. For 30 seconds directly post-addition, the aequorin-mediated luminescence was continuously measured.
In detail, a serotonin receptor (5HT2A) was transfected into a CHO cell line (ATCC-deposited cells), and, in the same manner as in Embodiment 1, Gα16, aequorin-expressing plasmids, and cAMP-responding Renilla luciferase plasmids were transfected into the stably expressing cell line and the cell suspension solution was adjusted.
As a stable substrate, 30 μm EnduRen™ was added, and after four hours' culturing, 90 μL of the cell suspension solution was added into each well of a 96-well plate into which 10 μL serotonin hydrochloride as serotonin-receptor ligands had been added at 2.5×10^−6 to 2.5×10^−12 M concentration. Results of measuring the change in luminescent intensity for 30 seconds immediately following the suspension addition, employing the ARVO luminometer by Berthold Technologies GmbH, were diagrammed (FIG. 5). In FIG. 5, the vertical axis indicates the per-second luminescent intensity (count per second), and the horizontal axis, the measuring time (seconds). […]

dopamine receptors (D2RS), sequence (P14416 1-414 isoform P14416-2): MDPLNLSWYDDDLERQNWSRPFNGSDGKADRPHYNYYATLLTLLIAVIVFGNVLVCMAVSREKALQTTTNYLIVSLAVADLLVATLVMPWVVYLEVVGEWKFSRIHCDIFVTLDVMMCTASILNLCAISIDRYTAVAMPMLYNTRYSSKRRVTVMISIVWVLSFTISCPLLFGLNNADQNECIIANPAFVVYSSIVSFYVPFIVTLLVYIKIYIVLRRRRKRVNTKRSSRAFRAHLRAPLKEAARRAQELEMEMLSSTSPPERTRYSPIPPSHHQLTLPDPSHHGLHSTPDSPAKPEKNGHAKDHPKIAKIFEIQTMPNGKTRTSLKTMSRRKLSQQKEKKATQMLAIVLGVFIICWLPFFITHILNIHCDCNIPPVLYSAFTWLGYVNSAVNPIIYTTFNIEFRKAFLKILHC

With `Nc1ncnc2c1ncn2[C@@H]1O[C@H](COP(=O)([O-])OP(=O)([O-])OP(=O)(O)O)[C@@H](O)[C@H]1O.O.[Na+].[Na+]` [ATP, adenosine 5′-triphosphate disodium hydrate], the “ATP-stimulated calcium response by aequorin luminescence” value in the assay on purine receptors [1] is “calcium response can be measured”. In addition, the “induction of cAMP-mediated Renilla luciferase” value in the assay with purine receptors [2] was “no induction”.
For `Cl.NCCc1ccc(O)c(O)c1` [dopamine, dopamine hydrochloride], in assay [3], the “forskolin-stimulated activity of Renilla luciferase” value was “declined”.
As for `NCCc1c[nH]c2ccc(O)cc12` [serotonin, serotonin hydrochloride], the “cAMP-mediated increase in (induction of) Renilla luciferase” value in assay [4] is “increase in (induction of) Renilla luciferase was confirmed”.
